Test results: publication PMC6120666 (The EMBO Journal, 2018)

Tests used:
Experiment in all cases: Drug affinity chromatography with c-ponatinib and LC-MS/MS (ponatinib interactome)
Assay type in all cases: binding
[1] = biological target: T1, proteins of U2OS cell lysate (Homo sapiens, UniProt Q9UHX1); settings: captured protein PUF60, Rank 203
T1 construct: Proteins enriched by c-ponatinib from U2OS cell lysate; endogenous in cells; host or cells: U2OS cell lysate
How it was run: (§1)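 U2OS cell lysate in NP-40 lysis buffer (2 mg protein per pulldown) was incubated with amine-derivatized NHS beads for 2 h at 4 °C. Bound proteins were washed, eluted with 100 mM formic acid, reduced, alkylated and trypsin-digested, then identified by nano-UPLC–MS/MS on Orbitrap instruments with a 60 min gradient.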

[2] = biological target: T2, proteins of U2OS cell lysate (Homo sapiens, UniProt P46782); settings: captured protein RPS5, Rank 160
T2 construct: Proteins enriched by c-ponatinib from U2OS cell lysate; endogenous in cells; host or cells: U2OS cell lysate
How it was run: as §1

[3] = biological target: T3, proteins of U2OS cell lysate (Homo sapiens, UniProt Q99623); settings: PHB2, Prohibitin-2
T3 construct: Proteins enriched by c-ponatinib from U2OS cell lysate; endogenous in cells; host or cells: U2OS cell lysate
How it was run: as §1

[4] = biological target: T4, proteins of U2OS cell lysate (Homo sapiens, UniProt Q6PJG6); settings: BRAT1, BRCA1-associated ATM activator 1
T4 construct: Proteins enriched by c-ponatinib from U2OS cell lysate; endogenous in cells; host or cells: U2OS cell lysate
How it was run: as §1

[5] = biological target: T5, proteins of U2OS cell lysate (Homo sapiens, UniProt Q13428); settings: TCOF1, Treacle protein
T5 construct: Proteins enriched by c-ponatinib from U2OS cell lysate; endogenous in cells; host or cells: U2OS cell lysate
How it was run: as §1

[6] = biological target: T6, proteins of U2OS cell lysate (Homo sapiens, UniProt Q13268); settings: DHRS2, Dehydrogenase/reductase SDR family member 2, mitochondrial
T6 construct: Proteins enriched by c-ponatinib from U2OS cell lysate; endogenous in cells; host or cells: U2OS cell lysate
How it was run: as §1

[7] = biological target: T7, proteins of U2OS cell lysate (Homo sapiens, UniProt Q09666); settings: AHNAK, Neuroblast differentiation-associated protein AHNAK
T7 construct: Proteins enriched by c-ponatinib from U2OS cell lysate; endogenous in cells; host or cells: U2OS cell lysate
How it was run: as §1

[8] = biological target: T8, proteins of U2OS cell lysate (Homo sapiens, UniProt P47914); settings: RPL29, 60S ribosomal protein L29
T8 construct: Proteins enriched by c-ponatinib from U2OS cell lysate; endogenous in cells; host or cells: U2OS cell lysate
How it was run: as §1

[9] = biological target: T9, proteins of U2OS cell lysate (Homo sapiens, UniProt P07947); settings: YES1, Tyrosine-protein kinase Yes
T9 construct: Proteins enriched by c-ponatinib from U2OS cell lysate; endogenous in cells; host or cells: U2OS cell lysate
How it was run: as §1

[10] = biological target: T10, proteins of U2OS cell lysate (Homo sapiens, UniProt P26641); settings: EEF1G, Elongation factor 1-gamma
T10 construct: Proteins enriched by c-ponatinib from U2OS cell lysate; endogenous in cells; host or cells: U2OS cell lysate
How it was run: as §1

[11] = biological target: T11, proteins of U2OS cell lysate (Homo sapiens, UniProt Q8TEX9); settings: IPO4, Importin-4
T11 construct: Proteins enriched by c-ponatinib from U2OS cell lysate; endogenous in cells; host or cells: U2OS cell lysate
How it was run: as §1

[12] = biological target: T12, proteins of U2OS cell lysate (Homo sapiens, UniProt P08195); settings: SLC3A2, 4F2 cell-surface antigen heavy chain
T12 construct: Proteins enriched by c-ponatinib from U2OS cell lysate; endogenous in cells; host or cells: U2OS cell lysate
How it was run: as §1

[13] = biological target: T13, proteins of U2OS cell lysate (Homo sapiens, UniProt Q13546); settings: RIPK1, Receptor-interacting serine/threonine-protein kinase 1
T13 construct: Proteins enriched by c-ponatinib from U2OS cell lysate; endogenous in cells; host or cells: U2OS cell lysate
How it was run: as §1

[14] = biological target: T14, proteins of U2OS cell lysate (Homo sapiens, UniProt P06748); settings: NPM1, Nucleophosmin
T14 construct: Proteins enriched by c-ponatinib from U2OS cell lysate; endogenous in cells; host or cells: U2OS cell lysate
How it was run: as §1

[15] = biological target: T15, proteins of U2OS cell lysate (Homo sapiens, UniProt O14980); settings: XPO1, Exportin-1
T15 construct: Proteins enriched by c-ponatinib from U2OS cell lysate; endogenous in cells; host or cells: U2OS cell lysate
How it was run: as §1

[16] = biological target: T16, proteins of U2OS cell lysate (Homo sapiens, UniProt P27816); settings: MAP4, Microtubule-associated protein 4
T16 construct: Proteins enriched by c-ponatinib from U2OS cell lysate; endogenous in cells; host or cells: U2OS cell lysate
How it was run: as §1

[17] = biological target: T17, proteins of U2OS cell lysate (Homo sapiens, UniProt O95292); settings: VAPB, Vesicle-associated membrane protein-associated protein B/C
T17 construct: Proteins enriched by c-ponatinib from U2OS cell lysate; endogenous in cells; host or cells: U2OS cell lysate
How it was run: as §1

[18] = biological target: T18, proteins of U2OS cell lysate (Homo sapiens, UniProt Q9NYJ8); settings: TAB2, TGF-beta-activated kinase 1 and MAP3K7-binding protein 2
T18 construct: Proteins enriched by c-ponatinib from U2OS cell lysate; endogenous in cells; host or cells: U2OS cell lysate
How it was run: as §1

[19] = biological target: T19, proteins of U2OS cell lysate (Homo sapiens, UniProt O75935); settings: DCTN3, Dynactin subunit 3
T19 construct: Proteins enriched by c-ponatinib from U2OS cell lysate; endogenous in cells; host or cells: U2OS cell lysate
How it was run: as §1

T12 sequence (P08195 102-630): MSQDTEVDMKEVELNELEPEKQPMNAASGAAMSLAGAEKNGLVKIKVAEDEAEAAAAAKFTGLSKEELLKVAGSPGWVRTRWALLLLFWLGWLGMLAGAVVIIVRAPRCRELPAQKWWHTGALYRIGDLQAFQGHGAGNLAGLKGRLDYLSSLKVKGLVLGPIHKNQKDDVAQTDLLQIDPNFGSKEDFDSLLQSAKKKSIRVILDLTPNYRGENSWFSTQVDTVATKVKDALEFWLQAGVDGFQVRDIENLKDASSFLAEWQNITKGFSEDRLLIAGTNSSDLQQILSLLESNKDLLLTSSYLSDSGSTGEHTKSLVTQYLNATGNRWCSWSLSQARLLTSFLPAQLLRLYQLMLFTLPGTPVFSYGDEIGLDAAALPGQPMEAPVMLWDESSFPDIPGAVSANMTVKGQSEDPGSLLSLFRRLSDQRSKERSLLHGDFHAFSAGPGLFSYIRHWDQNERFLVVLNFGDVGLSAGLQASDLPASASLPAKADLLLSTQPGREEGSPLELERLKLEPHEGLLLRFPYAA
T18 sequence (Q9NYJ8 whole entry): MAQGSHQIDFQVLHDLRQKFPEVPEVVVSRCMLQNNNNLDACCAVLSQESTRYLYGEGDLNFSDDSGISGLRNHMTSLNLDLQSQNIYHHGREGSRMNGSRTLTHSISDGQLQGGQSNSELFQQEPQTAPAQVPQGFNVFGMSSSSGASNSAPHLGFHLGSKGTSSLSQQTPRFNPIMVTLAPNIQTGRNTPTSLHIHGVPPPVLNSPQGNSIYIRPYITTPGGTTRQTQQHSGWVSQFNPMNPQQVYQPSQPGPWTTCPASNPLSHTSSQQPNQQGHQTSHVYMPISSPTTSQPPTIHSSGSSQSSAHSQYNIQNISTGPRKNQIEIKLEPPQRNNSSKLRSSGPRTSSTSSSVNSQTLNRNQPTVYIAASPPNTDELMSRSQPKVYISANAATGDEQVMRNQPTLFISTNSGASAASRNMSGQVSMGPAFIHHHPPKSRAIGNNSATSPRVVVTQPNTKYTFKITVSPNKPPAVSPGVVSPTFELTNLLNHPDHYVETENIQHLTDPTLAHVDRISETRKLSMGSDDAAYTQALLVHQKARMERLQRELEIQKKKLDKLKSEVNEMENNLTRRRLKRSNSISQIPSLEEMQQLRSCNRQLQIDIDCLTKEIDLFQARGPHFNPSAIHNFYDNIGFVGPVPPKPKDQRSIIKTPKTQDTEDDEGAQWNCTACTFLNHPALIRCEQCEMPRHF
T1 sequence (Q9UHX1 whole entry): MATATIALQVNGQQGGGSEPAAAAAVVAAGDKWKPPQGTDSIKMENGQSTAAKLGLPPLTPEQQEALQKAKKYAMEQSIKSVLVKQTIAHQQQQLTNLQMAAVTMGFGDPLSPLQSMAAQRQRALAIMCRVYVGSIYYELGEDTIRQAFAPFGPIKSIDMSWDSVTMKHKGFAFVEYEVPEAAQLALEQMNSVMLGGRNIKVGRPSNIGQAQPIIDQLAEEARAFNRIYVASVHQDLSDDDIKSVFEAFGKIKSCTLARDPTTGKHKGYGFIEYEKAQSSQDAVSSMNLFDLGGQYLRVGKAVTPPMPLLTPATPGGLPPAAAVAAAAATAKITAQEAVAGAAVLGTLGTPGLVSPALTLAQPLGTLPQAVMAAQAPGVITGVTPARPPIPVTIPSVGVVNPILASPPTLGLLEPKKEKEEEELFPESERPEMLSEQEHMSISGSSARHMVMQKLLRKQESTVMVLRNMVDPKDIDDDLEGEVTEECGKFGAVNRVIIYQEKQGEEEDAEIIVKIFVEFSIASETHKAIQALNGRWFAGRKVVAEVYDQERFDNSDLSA
T5 sequence (Q13428 whole entry): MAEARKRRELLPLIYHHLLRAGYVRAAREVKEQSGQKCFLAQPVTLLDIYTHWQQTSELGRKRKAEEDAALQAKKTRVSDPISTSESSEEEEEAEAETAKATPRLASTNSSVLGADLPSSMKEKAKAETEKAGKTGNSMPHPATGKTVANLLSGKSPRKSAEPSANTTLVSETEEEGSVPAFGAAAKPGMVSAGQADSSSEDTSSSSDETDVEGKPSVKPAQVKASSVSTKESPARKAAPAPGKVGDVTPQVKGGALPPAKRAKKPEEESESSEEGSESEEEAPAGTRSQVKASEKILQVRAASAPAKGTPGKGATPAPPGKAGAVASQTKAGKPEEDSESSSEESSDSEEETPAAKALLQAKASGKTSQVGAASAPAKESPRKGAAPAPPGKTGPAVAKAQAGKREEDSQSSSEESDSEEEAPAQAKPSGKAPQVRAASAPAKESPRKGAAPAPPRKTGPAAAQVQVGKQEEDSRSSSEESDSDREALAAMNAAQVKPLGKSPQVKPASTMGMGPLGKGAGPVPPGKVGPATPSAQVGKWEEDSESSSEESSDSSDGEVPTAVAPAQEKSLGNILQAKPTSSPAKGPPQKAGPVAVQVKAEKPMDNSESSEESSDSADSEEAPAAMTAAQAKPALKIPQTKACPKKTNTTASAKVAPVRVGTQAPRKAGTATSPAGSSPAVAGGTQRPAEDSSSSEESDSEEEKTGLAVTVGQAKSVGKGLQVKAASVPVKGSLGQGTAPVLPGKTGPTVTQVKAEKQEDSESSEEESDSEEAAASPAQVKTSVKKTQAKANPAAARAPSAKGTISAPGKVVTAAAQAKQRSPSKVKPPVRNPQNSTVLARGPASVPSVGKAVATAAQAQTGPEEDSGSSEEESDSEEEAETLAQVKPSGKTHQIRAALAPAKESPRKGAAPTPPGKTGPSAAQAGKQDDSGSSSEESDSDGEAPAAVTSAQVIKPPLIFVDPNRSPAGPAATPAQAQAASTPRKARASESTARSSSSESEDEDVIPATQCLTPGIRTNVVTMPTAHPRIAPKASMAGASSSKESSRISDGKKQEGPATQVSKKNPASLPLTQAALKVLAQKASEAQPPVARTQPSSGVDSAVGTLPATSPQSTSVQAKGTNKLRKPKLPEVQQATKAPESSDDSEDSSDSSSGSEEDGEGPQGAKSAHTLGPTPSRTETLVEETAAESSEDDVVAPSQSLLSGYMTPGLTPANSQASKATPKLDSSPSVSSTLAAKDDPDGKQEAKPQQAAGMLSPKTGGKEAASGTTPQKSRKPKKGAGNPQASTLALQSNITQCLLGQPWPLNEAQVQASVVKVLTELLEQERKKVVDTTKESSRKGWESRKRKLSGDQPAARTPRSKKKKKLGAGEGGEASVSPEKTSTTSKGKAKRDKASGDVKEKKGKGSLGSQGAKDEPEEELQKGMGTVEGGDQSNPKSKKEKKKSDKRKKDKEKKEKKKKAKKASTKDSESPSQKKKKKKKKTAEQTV
T19 sequence (O75935 whole entry): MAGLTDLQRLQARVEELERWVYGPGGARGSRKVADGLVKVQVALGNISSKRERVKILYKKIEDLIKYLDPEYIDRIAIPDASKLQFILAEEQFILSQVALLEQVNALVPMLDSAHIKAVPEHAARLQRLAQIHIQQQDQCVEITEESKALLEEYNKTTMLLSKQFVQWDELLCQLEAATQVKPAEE
T9 sequence (P07947 whole entry): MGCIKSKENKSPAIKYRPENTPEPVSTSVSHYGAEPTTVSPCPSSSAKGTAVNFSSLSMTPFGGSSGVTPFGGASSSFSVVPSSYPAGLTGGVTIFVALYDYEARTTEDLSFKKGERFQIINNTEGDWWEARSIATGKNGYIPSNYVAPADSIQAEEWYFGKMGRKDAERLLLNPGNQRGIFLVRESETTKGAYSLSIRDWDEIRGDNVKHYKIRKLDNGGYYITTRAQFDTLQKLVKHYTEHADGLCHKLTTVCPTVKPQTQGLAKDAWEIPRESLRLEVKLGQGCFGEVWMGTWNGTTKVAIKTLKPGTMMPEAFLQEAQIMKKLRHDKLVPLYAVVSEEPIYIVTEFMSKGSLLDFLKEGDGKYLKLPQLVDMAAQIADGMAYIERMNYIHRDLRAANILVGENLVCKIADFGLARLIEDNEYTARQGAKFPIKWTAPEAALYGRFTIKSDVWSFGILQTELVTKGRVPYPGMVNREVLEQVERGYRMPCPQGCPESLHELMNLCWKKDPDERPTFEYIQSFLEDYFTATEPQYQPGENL
T17 sequence (O95292 whole entry): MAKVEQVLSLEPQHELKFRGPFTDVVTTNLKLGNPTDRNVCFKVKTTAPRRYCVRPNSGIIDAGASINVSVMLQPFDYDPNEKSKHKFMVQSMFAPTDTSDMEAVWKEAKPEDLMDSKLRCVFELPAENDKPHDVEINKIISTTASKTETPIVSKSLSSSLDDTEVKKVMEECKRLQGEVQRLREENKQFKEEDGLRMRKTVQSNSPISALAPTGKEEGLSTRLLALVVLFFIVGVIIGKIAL
T6 sequence (Q13268 24-280): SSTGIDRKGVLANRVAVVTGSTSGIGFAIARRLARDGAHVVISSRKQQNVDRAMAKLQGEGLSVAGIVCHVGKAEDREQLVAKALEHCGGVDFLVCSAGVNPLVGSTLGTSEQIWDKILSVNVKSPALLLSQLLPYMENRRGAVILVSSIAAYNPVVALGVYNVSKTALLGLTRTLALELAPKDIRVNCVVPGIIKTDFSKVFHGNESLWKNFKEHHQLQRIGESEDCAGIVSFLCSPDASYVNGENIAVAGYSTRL
T14 sequence (P06748 whole entry): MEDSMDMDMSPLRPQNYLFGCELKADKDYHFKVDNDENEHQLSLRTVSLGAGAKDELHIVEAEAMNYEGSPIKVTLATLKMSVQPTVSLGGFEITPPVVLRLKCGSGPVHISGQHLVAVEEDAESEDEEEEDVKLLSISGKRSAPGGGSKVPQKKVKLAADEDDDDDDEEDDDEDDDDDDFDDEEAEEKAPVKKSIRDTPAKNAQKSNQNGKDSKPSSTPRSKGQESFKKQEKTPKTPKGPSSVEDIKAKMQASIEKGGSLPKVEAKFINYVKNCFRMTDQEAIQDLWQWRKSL

Structure (SMILES) | Average LFQ intensity [1] | Average LFQ intensity [2] | Average LFQ PON_WT [3] | Average LFQ PON_WT [4] | Average LFQ PON_WT [5] | Average LFQ PON_WT [6] | Average LFQ PON_WT [7] | Average LFQ PON_WT [8] | Average LFQ PON_WT [9] | Average LFQ PON_WT [10] | Average LFQ PON_WT [11] | Average LFQ PON_WT [12] | Average LFQ PON_WT [13] | Average LFQ PON_WT [14] | Average LFQ PON_WT [15] | Average LFQ PON_WT [16] | Average LFQ PON_WT [17] | Average LFQ PON_WT [18] | Average LFQ PON_WT [19]
Cc1ccc(C(=O)Nc2ccc(CN3CCN(CCCN)CC3)c(C(F)(F)F)c2)cc1C#Cc1cnc2cccnn12 [c-ponatinib, reference compound] | 21.804 | 22.4465 |  |  |  |  |  |  |  |  |  |  |  |  |  |  |  |  | 
Cc1ccc(C(=O)Nc2ccc(CN3CCN(C)CC3)c(C(F)(F)F)c2)cc1C#Cc1cnc2cccnn12 [PON] |  |  | 28.7804 | 19.9568 | 20.5654 | 24.0178 | 26.25 | 19.934 | 25.9404 | 25.0677 | 20.7176 | 18.7801 | 25.0833 | 21.1903 | 23.5357 | 23.7532 | 20.7048 | 24.3605 | 20.8844
